The target in one test is T1, p38α MAP kinase (Homo sapiens, UniProt Q16539).
T1 construct: made in house; host or cells: COS-1 cells (transient co-transfection), immunoprecipitated with anti-FLAG M2 on Protein G Sepharose
The test can be described thus: p38α MAP kinase assay (immunoprecipitated FLAG-p38α from COS-1 cells, GST-ATF-2 substrate). It counts as biochemical. As to the method:
COS-1 cells (derived from African green monkey kidney fibroblast-like cell containing wild-type T antigen under control of the SV40 promotor) were obtained from ATCC (ATCC no. CRL-1650) and grown in growth medium (DMEM without phenolred, 10% FCS, 2 mM L-glutamine, 100U penicillin and 100 μg streptomycin/ml) at 37° C. with 5% CO2. The cells were passaged twice a week by trypsination (0.25% trypsin, 1 mM EDTA in PBS) and were split 1:10. The medium was changed every second or third day. The cell line was regularly tested with the Mycoplasma PCR Primer Set (Stratagene) and found to be free of Mycoplasma. Tissue culture media, FCS, L-glutamine and penicillin and streptomycin are from Bribco BRL, Gaithersburg, Md., USA.
On day one COS-1 cells were seeded in 143 cm^2 petridish with a density of 2×10^4 celler/cm^2 in growth medium. At day 2 the cells were co-transfected with 5 μg (total) of experimental plasmid DNA, expressing the FLAG-p38α and FLAG-MKK6(EE). The plasmids were introduced into the COS-1 cells in serum-free medium using DOTAP™ (Boehringer-Mannheim, Mannheim, Germany). Plasmid DNA was prepared and purified using the QIAGEN EndoToxin-free Maxiprep-500 kit (Hilden, Germany). Briefly, DNA and DOTAP™ were mixed for exactly 15 min. at 37° C. in the CO2 incubator. […]

Test [1] deals with TNF-α. The test can be described thus: Inhibition of TNF-α secretion in LPS stimulated peripheral blood mononuclear cells. It counts as cell-based. Particulars: LPS stimulated human PBMC, 18 hours, ELISA; read-out: The median inhibition concentration (IC50, nM) of TNF-α. As to the method: (§1) To study the effect of compounds of the present invention in vitro, the inhibition of IL-1β and TNF-α secretion was determined using the following procedure:
(§2) Cytokine production was measured in the media from lipopolysaccharide (LPS) stimulated peripheral blood mononuclear cells. The mononuclear cells were isolated from human peripheral blood by Lymphoprep® (Nycomed, Norway) fractionation and suspended in RPMI 1640 (growth medium) with foetal calf serum (FCS, 2%), at a concentration of 5×10^5 cells/ml. The cells were incubated in 24-well tissue culture plates in 1 ml aliquots. Test compounds were dissolved in dimethylsulfoxide (DMSO, 10 mM) and were diluted with the medium. Compounds were added to the cells for 30 minutes, then LPS ([…] final concentration) was added. The plates were incubated for 18 hours, and the concentration of IL-1β and TNF-α in the medium was determined by enzyme-linked immunosorbent assays. The median inhibitory concentrations (IC50) of the compounds were calculated.

In test [2] the test system is TNF-α. The test can be described thus: In vivo screening model of LPS induced TNF-α response in mice. As to conditions: Mus musculus, po, 1 mg/kg p.o., 1 hour prior to LPS, plasma TNF-α 80-90 minutes after LPS, read-out: In vivo inhibition of LPS induced TNF-α production (in %). As for the experimental part: In Vivo Screening Model of LPS Induced TNF-α Response in Mice
To study the effect of compounds of the present invention in vivo, an in vivo screening model of LPS induced TNF-α response in mice was set up as follows: Groups of 6 mice (C3H/HeN, female, about 8 weeks (20 g), Bomholtgaard) were dosed with test compounds in suspension vehicle 1 hour prior to LPS administration (LPS from E. coli 055:B5, L-4005, Sigma). At time 0, the mice were dosed ip with 1.0 mg LPS/kg. After anesthetization with Hypnorm/Dormicum, the mice were bled from the periorbital venous plexus 80-90 minutes after LPS administration. The blood samples were sampled in EDTA stabilised tubes and centrifuged at 4000 rpm for 10 minutes at 4° C. The plasma level of TNF-α was analysed by ELISA. Compound 156 of WO 98/32730 was used as reference compound. The plasma level of TNF-α was determined using a sandwich ELISA. Microtiter plates were coated with a monoclonal antibody against mouse TNF-α, washed and blocked with a casein buffer. Samples of mouse TNF-α recombinant standards were added to the wells of the microtiter plates and incubated. All standards were tested in triplicate, all plasma samples in single. After sample and standard incubation, the plates were washed and incubated with biotinylated polyclonal secondary antibody against mouse TNF-α and washed. Enzyme conjugate was added to all wells and incubated. Substrate was added and the enzyme/substrate reaction stopped after 15 minutes at room temperature with 1M H2SO4. The colour development (OD) was measured at 450 nm on an ELISA reader and the background OD at 620 nm was subtracted. […] The results of the tested compounds are indicated as a percentage inhibition compared to an LPS treated control group. Compounds were tested at 1 mg/kg (p.o.). The Mann-Whitney test was used to compare drug treated groups to the LPS treated control group (p<0.05).

A further test concerns IL-1β. The test can be described thus: Inhibition of IL-1β secretion in LPS stimulated peripheral blood mononuclear cells. In kind it is cell-based. As to conditions: LPS stimulated human PBMC, 18 hours, ELISA; read-out: The median inhibition concentration (IC50, nM) of IL-1β. As to the method: as §1, §2
In test [3] the test system is TNF-α. The test can be described thus: In vivo screening model of LPS induced TNF-α response in mice. Particulars: Mus musculus, ip, tested at 10 mg/kg i.p., plasma TNF-α 80-90 minutes after LPS, read-out: In vivo inhibition of LPS induced TNF-α production (in %).

In general, inhibition in vivo refers to the drop in the measured response relative to a control, in per cent.

T1 sequence (Q16539 whole entry): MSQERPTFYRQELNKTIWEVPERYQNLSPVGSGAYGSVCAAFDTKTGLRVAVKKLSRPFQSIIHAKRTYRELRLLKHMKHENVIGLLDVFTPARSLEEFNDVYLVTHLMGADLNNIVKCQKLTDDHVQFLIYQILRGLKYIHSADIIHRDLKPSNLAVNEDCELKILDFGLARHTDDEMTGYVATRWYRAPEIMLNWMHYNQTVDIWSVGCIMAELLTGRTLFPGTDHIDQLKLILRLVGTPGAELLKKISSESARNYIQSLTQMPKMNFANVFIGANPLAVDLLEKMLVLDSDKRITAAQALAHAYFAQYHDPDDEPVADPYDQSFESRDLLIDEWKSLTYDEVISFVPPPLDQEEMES

In the case of `Cc1ccc(-c2cn(CCO)nn2)cc1C(=O)c1ccc(Nc2ccc(F)cc2F)cc1Cl` [Compound 102, [2-Chloro-4-(2,4-difluoro-phenylamino)-phenyl]-{5-[1-(2-hydroxy-ethyl)-1H-[1,2,3]triazol-4-yl]-2-methyl-phenyl}-methanone], the “p38 MAP kinase inhibition” value at p38α MAP kinase is listed as “potent p38 MAP kinase inhibitor”. In addition, the IC50 with TNF-α [1] is 0.5 nM; with IL-1β, 1.3 nM. Also, in the test on TNF-α [2], the inhibition in vivo at 1 mg/kg came to 94%.
Take `Cc1ccc(-c2cn(CCCS(N)(=O)=O)nn2)cc1C(=O)c1ccc(Nc2ccc(F)cc2F)cc1Cl` [Compound 108, 3-(4-{3-[2-Chloro-4-(2,4-difluoro-phenylamino)-benzoyl]-4-methyl-phenyl}-[1,2,3]triazol-1-yl)-propane-1-sulfonic acid amide]: the IC50 in the test on TNF-α [1] came out at 0.7 nM; in the test on IL-1β, 1.3 nM. The inhibition in vivo at 1 mg/kg in the test on TNF-α [2] was found to be 78%.
For `Cc1ccc(-c2cn(CCNS(C)(=O)=O)nn2)cc1C(=O)c1ccc(Nc2ccc(F)cc2F)cc1Cl` [Compound 109, N-[2-(4-{3-[2-Chloro-4-(2,4-difluoro-phenylamino)-benzoyl]-4-methyl-phenyl}-[1,2,3]triazol-1-yl)-ethyl]-methanesulfonamide], in that order: 1.2 nM, 1.9 nM and 79%.
The like results for `CCNC(=O)Cn1cc(-c2ccc(C)c(C(=O)c3ccc(Nc4ccc(F)cc4F)cc3Cl)c2)nn1` [Compound 112, 2-(4-{3-[2-Chloro-4-(2,4-difluoro-phenylamino)-benzoyl]-4-methyl-phenyl}-[1,2,3]triazol-1-yl)-N-ethyl-acetamide] were, in that order, 0.3 nM, 5 nM and 49%.
Take `Cc1ccc(-c2cn(CC(=O)N3CCCC3)nn2)cc1C(=O)c1ccc(Nc2ccc(F)cc2F)cc1Cl` [Compound 114, 2-(4-{3-[2-Chloro-4-(2,4-difluoro-phenylamino)-benzoyl]-4-methyl-phenyl}-[1,2,3]triazol-1-yl)-1-pyrrolidin-1-yl-ethanone]: the results for the IC50 in the test with TNF-α [1] and in the test with IL-1β were 0.3 nM and 0.4 nM, respectively. Moreover, the inhibition in vivo at 1 mg/kg in the test with TNF-α [2] came out at 86%.
For `Cc1ccc(-c2cn(CC(=O)N3CCOCC3)nn2)cc1C(=O)c1ccc(Nc2ccc(F)cc2F)cc1Cl` [Compound 115, 2-(4-{3-[2-Chloro-4-(2,4-difluoro-phenylamino)-benzoyl]-4-methyl-phenyl}-[1,2,3]triazol-1-yl)-1-morpholin-4-yl-ethanone], in that order: 0.5 nM, 0.5 nM and 70%.
The like results for `Cc1ccc(-c2cn(CCO)nn2)cc1C(=O)c1ccc(Nc2ccc(F)cc2)cc1Cl` [Compound 122, [2-Chloro-4-(4-fluoro-phenylamino)-phenyl]-{5-[1-(2-hydroxy-ethyl)-1H-[1,2,3]triazol-4-yl]-2-methyl-phenyl}-methanone] were, in that order, 0.9 nM, 1.4 nM and 96%.
The like results for `Cc1ccc(-c2cn(CC(O)CO)nn2)cc1C(=O)c1ccc(Nc2ccc(F)cc2)cc1Cl` (centres unmarked) [Compound 124, [2-Chloro-4-(4-fluoro-phenylamino)-phenyl]-{5-[1-(2,3-dihydroxy-propyl)-1H-[1,2,3]triazol-4-yl]-2-methyl-phenyl}-methanone] were, in that order, 0.5 nM, 0.8 nM and 77%.
As for `Cc1ccc(-c2cn(CC(N)=O)nn2)cc1C(=O)c1ccc(Nc2ccc(F)cc2)cc1Cl` [Compound 125, 2-(4-{3-[2-Chloro-4-(4-fluoro-phenylamino)-benzoyl]-4-methyl-phenyl}-[1,2,3]triazol-1-yl)-acetamide], the IC50 was determined as 0.5 nM with TNF-α [1] and 1 nM in the test on IL-1β. Also, the inhibition in vivo at 1 mg/kg in the test on TNF-α [2] came to 96%.
`Cc1ccc(-n2cc(CCO)nn2)cc1C(=O)c1ccc(Nc2ccc(F)cc2)cc1Cl` [Compound 127, [2-Chloro-4-(4-fluoro-phenylamino)-phenyl]-{5-[4-(2-hydroxy-ethyl)-[1,2,3]triazol-1-yl]-2-methyl-phenyl}-methanone]: the IC50 in the test with TNF-α [1] was determined as 0.7 nM; with IL-1β, 0.9 nM. The inhibition in vivo at 1 mg/kg with TNF-α [2] is 94%.
The like results for `Cc1ccc(-n2cc(C(C)(C)N)nn2)cc1C(=O)c1ccc(Nc2ccc(F)cc2F)cc1Cl` [Compound 131, {5-[4-(1-Amino-1-methyl-ethyl)-[1,2,3]triazol-1-yl]-2-methyl-phenyl}-[2-chloro-4-(2,4-difluoro-phenylamino)-phenyl]-methanone] were, in that order, 1.8 nM, 2.5 nM and 80%.
As to `Cc1ccccc1C(=O)c1ccc(Nc2ccccc2N)cc1Cl` [Ref. comp. a, 4-(2-aminophenylamino)-2-chloro-2′-methylbenzophenone], the inhibition in vivo at 10 mg/kg in the test on TNF-α [3] came out at 23%.
